Reference: US8410170B2, “Use of isothiocyanates compounds in treating prostatic diseases and skin cancer” (Wuxi JC Pharmaceutical Technology Co., Ltd., priority 2005, dated 2013)

What was measured:
[1] = system: transcription factor Sp1; assay: Sp1-luc luciferase activity assay in transfected LNCaP AD cells; type: cell-based, human; details: 24 hrs
From the text: The Sp1-luc and mtSp1-luc contain three tandem repeats of consensus Sp1 sites driving the luciferase gene and its mutant. […] Effectene transfection reagent and luciferase assay kit were acquired from Qiagen (Valencia, Calif., USA) and Promega (Madison, Wis., USA). Reagents for protein electrophoresis were purchased from Bio-Rad company (USA). The other chemicals were purchased from Sigma (St. Louis, Mo.) otherwise as indicated. […] (Gao, M., Ossowski, L., and Ferrari, A. C. Activation of Rb and decline in androgen receptor protein precede retinoic acid-induced apoptosis in androgen-dependent LNCaP cells and their androgen-independent derivative. J Cell Physiol, 179: 336-346, 1999). The AD and AI cells were maintained in RPMI-1640 with 10% fetal bovine serum (FBS) and charcoal stripped fetal bovine serum, penicillin-streptomycin for incubation at 5% CO2 and 37° C. respectively. […] After incubation for 24 hrs at 5% CO2 and 37° C., the cells were transfected with 1 μg/dish of SP1-luciferase gene (Sp1-luc), or its mutant mtSp1-luc using Effectene (Qiagen, Valencia, Calif.) as the transfection reagent. […] The cells were collected, washed, lysed, and the lysates were used for luciferase activity assay using Promega luciferase assay system.

[2] = system: androgen-induced BPH; assay: Therapeutic effects on BPH: Test Two (castrated rats, testosterone propionate; weights and histopathology); type: in vivo, SD rats
Method: Thirty-six male SD rats were randomly divided into 4 groups, nine each. Group 1 was served as blank control group (pseudo-surgery control group) in which animals were under the same surgical procedures except no testis was sectioned and fed normally. Groups from 2 to 4 were served as treatment groups in which all animals were anesthetized using ketamine and castrated by removing both testises under sterile conditions. After the surgery, the penicillin was injected to prevent the animals from infection. One week later, the testosterone propionate was injected subcutaneously at dose of 5 mg/kg, once a day for a month. […] Group 3 was served as positive control group in which animals were given Proscar by gavage at dose of 0.1 mg/rat/day for a month beginning on the same day that the testosterone propionate was injected.
Twenty-four hrs after the last dose, the animals were euthanized and weighed. Volume and weight of prostate were measured. The averages of prostate volume/weight and organ coefficient (average weight of prostate/average of body weight) were calculated, and statistical analysis performed (t test).
Prostate tissues of animals from different groups were embedded with paraffin. The tissue sections were stained with H&E for histpathological examination by an anatomical pathologist.

[3] = system: human prostate cancer cell line LNCaP; assay: MTT and SRB cell growth assay, LNCaP; type: cell-based
Method: MTT and SRB method as described in the reference (Kreis, Budman et al. 1997). Briefly, human prostate cancer cells grown exponentially were aliquoted into 96-well plates at a density of 5000 cells/200 μl per well. Twenty-four hrs after the incubation, the cells were exposed for three or seven days to serial dilutions of indicated isothiocyanate. After the incubation, 100 μl of the medium was removed from each of the wells and 50 μl solution of 3-(4,5-dimethyl-thiazol-2-yl)-2,5-diphenyltetrazolium bromide (MTT) was added, the cells were incubated for an additional 4 hrs and then 200 μl of 0.04 N HCl-isopropanol was added to each well to dissolve the black formazan precipitates. The absorbance was measured at wavelength 540 nm. For SRB method, remove the medium after 72 hrs. The cells on 96-well dishes were fixed with 10% trichloride acetic acid for 1 hr, air-dried for 24 hrs. The cells were then stained with 50 μl of SRB (sulforhodamine B) for […]. After extensive washes with 1% acetic acid for 5 times, air-dried, the purple protein-SRB complex was dissolved in 200 μl 10 mM Tris-HCl buffer (pH 10.0), and the absorbance was measured at the wavelength of 540 and 630 nm. The percent of cell survival (T/C%) were calculated based on the results of test groups to that of the control group. The semi-exponential curves of the percent of cell survival (T/C%) to the drug concentrations (FIG. 8) and IC50 were obtained by using Sigma-plot program.

[4] = system: LNCaP AD; assay: MTT growth inhibition, hormone dependent LNCaP AD; type: cell-based; details: Homo sapiens, LNCaP, 168 h, read-out: IC50, growth inhibition
From the text: The human prostate cancer cell line LNCaP AD was purchased from the American Type Culture Collection. LNCaP AI cell line was derived from LNCaP cells using a method described previously by Gao et al. (Gao, M., Ossowski, L., and Ferrari, A. C. Activation of Rb and decline in androgen receptor protein precede retinoic acid-induced apoptosis in androgen-dependent LNCaP cells and their androgen-independent derivative. J Cell Physiol, 179: 336-346, 1999). The AD and AI cells were maintained in RPMI-1640 with 10% fetal bovine serum (FBS) and charcoal stripped fetal bovine serum, penicillin-streptomycin for incubation at 5% CO2 and 37° C. respectively.
MTT: MTT and SRB method were used to determine the effects of various isothiocyanates on cell growth as described previously (Kreis, Budman et al, 1997). Briefly, human prostate cancer cell line LNCaP grown exponentially were aliquoted into 96-well plates at a density of 2500 cells/200 μl per well. Twenty-four hrs after the incubation, the cells were exposed for seven days to serial dilutions of indicated isothiocyanate or paclitaxel. […] The absorbance was measured at wavelength 540 nm. The percent of cell survival (T/C%) were calculated based on the results of test groups to that of the control group. […]

SMILES: S=C=NCCc1ccccc1 [PEITC, phenethyl isothiocyanate]
- luciferase activity of Sp1-luc transfected gene [1]: significantly decreased
- Average Body Weight ([2]; PEITC 2 mg/kg oral (Example 13-11), one month): 337 ± 23.7 g
- Average Volume of Prostate ([2]; PEITC 2 mg/kg oral, one month): 1.42 ± 0.16 cm^3
- Average Weight of Prostate ([2]; PEITC 2 mg/kg oral, one month): 1.20 ± 0.16 g
- Inhibition of Organ Coefficient ([2]; PEITC 2 mg/kg oral, one month): 16.28%
- Organ Coefficient ([2]; PEITC 2 mg/kg oral, one month): 0.36 ± 0.06%
- Acinar Density: no. of animals with score 0 ([2]; PEITC 2 mg/kg, 9 animals): 7
- Acinar Density: no. of animals with score + ([2]; PEITC 2 mg/kg, 9 animals): 2
- Acinar Density: no. of animals with score ++ ([2]; PEITC 2 mg/kg, 9 animals): 0
- Acinar Density: no. of animals with score +++ ([2]; PEITC 2 mg/kg, 9 animals): 0
- Connective tissue proliferation, or papillary hyperplasia: no. of animals with score 0 ([2]; PEITC 2 mg/kg, 9 animals): 8
- Connective tissue proliferation, or papillary hyperplasia: no. of animals with score + ([2]; PEITC 2 mg/kg, 9 animals): 1
- Connective tissue proliferation, or papillary hyperplasia: no. of animals with score ++ ([2]; PEITC 2 mg/kg, 9 animals): 0
- Connective tissue proliferation, or papillary hyperplasia: no. of animals with score +++ ([2]; PEITC 2 mg/kg, 9 animals): 0
- Enlargement of Lumen of Gland: no. of animals with score 0 ([2]; PEITC 2 mg/kg, 9 animals): 3
- Enlargement of Lumen of Gland: no. of animals with score + ([2]; PEITC 2 mg/kg, 9 animals): 6
- Enlargement of Lumen of Gland: no. of animals with score ++ ([2]; PEITC 2 mg/kg, 9 animals): 0
- Enlargement of Lumen of Gland: no. of animals with score +++ ([2]; PEITC 2 mg/kg, 9 animals): 0
- Histopathological score of BPH, Average X ± SD ([2]; PEITC 2 mg/kg, 9 animals): 1.78 ± 1.09
- Secretions of Gland: no. of animals with score 0 ([2]; PEITC 2 mg/kg, 9 animals): 3
- Secretions of Gland: no. of animals with score + ([2]; PEITC 2 mg/kg, 9 animals): 5
- Secretions of Gland: no. of animals with score ++ ([2]; PEITC 2 mg/kg, 9 animals): 1
- Secretions of Gland: no. of animals with score +++ ([2]; PEITC 2 mg/kg, 9 animals): 0
- lumen, secretary materials in the lumen and density of prostatic acinars, versus untreated BPH tissues (slide) ([2]; PEITC 2 mg/kg, FIG. 6.5): reduced
- Percent of Cell Survival (T/C %) ([3]; 0.0390 μM, LNCaP): 102.60%
- Percent of Cell Survival (T/C %) ([3]; 0.0780 μM, LNCaP): 102.10%
- Percent of Cell Survival (T/C %) ([3]; 0.1562 μM, LNCaP): 88.10%
- Percent of Cell Survival (T/C %) ([3]; 0.3125 μM, LNCaP): 82.25%
- Percent of Cell Survival (T/C %) ([3]; 0.6250 μM, LNCaP): 82.25%
- Percent of Cell Survival (T/C %) ([3]; 1.2500 μM, LNCaP): 78.12%
- Percent of Cell Survival (T/C %) ([3]; 2.5000 μM, LNCaP): 30.24%
- Percent of Cell Survival (T/C %) ([3]; 5.0000 μM, LNCaP): 10.06%
- Percent of Cell Survival (T/C %) ([3]; 10.0000 μM, LNCaP): 1.52%
- Percent of Cell Survival (T/C %) ([3]; 20.0000 μM, LNCaP): 0.56%
- IC50 ([3]; Homo sapiens, LNCaP, MTT and SRB, read-out: IC50, growth inhibition): 800 to 1500 nM
- inhibitory effect on growth of human prostate cancer cells stronger than B16 cells ([3]; LNCaP versus B16): 8-10 times
- IC50 [4]: 600 nM
